Key:
Ankylosing Spondylitis = conditions: after 24 weeks, largest study trial; placebo 22%; cited from earlier work
[1] = test system: ankylosing spondylitis patients; assay: Response of ankylosing spondylitis patients to apremilast treatment, by biomarker-defined patient group; assay type: in vivo, human
Procedure: In this example, a group of ankylosing spondylitis patients was identified based on expression profile of 49 biomarkers as being more likely to be responsive to a treatment with apremilast. In particular, Myriad RBM inflammation MAP biomarker panel (having 49 biomarkers) was used to profile 280 patient samples in the study, among which 255 patient samples produced measurable biomarker levels. In these 255 patient samples, 95 patient samples were treated with 20 mg apremilast (“Apremilast 20 mg Arm Group”). Within the Apremilast 20 mg Arm Group, 36 patient samples were responsive to the treatment and 59 patient samples were not responsive to the treatment. 80 patient samples were treated with 30 mg apremilast (“Apremilast 30 mg Arm Group”). Within Apremilast 30 mg Arm Group, 31 patient samples were responsive to the treatment and 49 patient samples were not responsive to the treatment. The remaining 80 patient samples were control samples (placebo arm).
Unsupervised clustering was then used to analyze the biomarker expression profiles for these patient samples based on the 49 biomarkers (consensus clustering/distance (1-PCor)/Ward linkage method). These 49 biomarkers were Alpha-1-Antitrypsin, Alpha-2-Macroglobulin, Beta-2-Microglobulin, Brain-Derived Neurotrophic Factor, C-Reactive Protein, Complement C3, Eotaxin-1, Factor VII, Ferritin, Fibrinogen, Granulocyte-Macrophage Colony-Stimulating Factor, Haptoglobin, Intercellular Adhesion Molecule 1, Interferon gamma, Interleukin-1 alpha, Interleukin-1 beta, Interleukin-1 receptor antagonist, Interleukin-10, Interleukin-12 Subunit p40, Interleukin-12 Subunit p70, Interleukin-15, Interleukin-17, Interleukin-2, Interleukin-23, Interleukin-3, Interleukin-4, Interleukin-5, Interleukin-6, Interleukin-7, Interleukin-8, Macrophage Inflammatory Protein-1 alpha, Macrophage Inflammatory Protein-1 beta, Matrix Metalloproteinase-3, Matrix Metalloproteinase-9, MCP1, Stem Cell Factor, T-Cell-Specific Protein RANTES, Tissue Inhibitor of Metalloproteinases, Tumor Necrosis Factor alpha, Tumor Necrosis Factor beta, Tumor necrosis factor receptor 2, Vascular Cell Adhesion Molecule-1, Vascular Endothelial Growth Factor, Vitamin D-Binding Protein, von Willebrand Factor, Osteoprotegerin, Interleukin-18, RANKL, and Sclerostin.
The results are shown in the plot of FIG. 1A. As shown, a group of 50 patients (cluster 4) were identified as representing about 30% of the total treatment arm population. […] In particular, within this group of 50 patients, the response rate was about 54%, higher than the response rate in the remaining patients which was about 31%.
Each biomarker was then further analyzed for its association with the cluster 4 patient group. MCP1 cytokine was identified as being able to most strongly differentiate the cluster 4 group with the remaining patients. […] The threshold derived from the mid-point (or average) of the median of MCP1 low cluster and the median of non MCP1 low patients was 93.5 pg/ml (see the dash line in the right panel of FIG. 2A).
When the threshold was calculated as the mid-point between median MCP1 level in cluster 4 patient group and median MCP1 level in the remaining patients, the threshold level was 93.5 pg/ml.
A third method used to calculate a MCP1 threshold level was by calculating the mean of thresholds obtained from 10-fold cross validation (discussed above). In particular, each fold provided an optimal threshold according to the AUC metric when classifying for cluster membership. Then, the mean value of the 10 thresholds was calculated. Using this method, the threshold of MCP1 was calculated as 75.63 pg/ml. With this more restrictive learned threshold, the population selected into the MCP1 low group decreased while the response rate of the MCP1 low sub-group increased.

Compound	response rate (ASAS 20 response criteria) (Ankylosing Spondylitis) [%]	patient samples responsive to the treatment ([1]; Apremilast 20 mg Arm Group, 95 patient samples)	patient samples responsive to the treatment ([1]; Apremilast 30 mg Arm Group, 80 patient samples)	response rate ([1]; MCP1 low group, threshold 75.63 pg/ml, apremilast 30 mg arm (22% of the patients)) [%]	response rate ([1]; MCP1 low group, threshold 93.5 pg/ml, apremilast 30 mg arm (45% of the patients)) [%]	response rate ([1]; MCP1 low group, threshold 93.5 pg/ml, both 20 mg and 30 mg arms (36% of the patients)) [%]	response rate ([1]; cluster 4 (MCP1 low patient group), 50 patients, 20 mg or 30 mg apremilast)	response rate ([1]; cluster 4 patients receiving 30 mg apremilast (25 patients)) [%]	patients responded ([1]; cluster 4 patients receiving 30 mg apremilast, out of 25)	response rate ([1]; patient subgroup differentiated by MCP1 level (14% of total population), apremilast arm 20 mg or 30 mg, FIG. 2B)	response rate ([1]; patient subgroup differentiated by MCP1 level (20% of apremilast 30 mg arm), 30 mg apremilast, FIG. 2C)	response rate ([1]; remaining patients (not cluster 4), treatment arms)	response rate ([1]; remaining patients in the Apremilast 30 mg Arm Group (not cluster 4)) [%]
etanercept	57												
CCOc1cc([C@@H](CS(C)(=O)=O)N2C(=O)c3cccc(NC(C)=O)c3C2=O)ccc1OC [apremilast, (+)-2-[1-(3-ethoxy-4-methoxyphenyl)-2-methylsulfonylethyl]-4-acetylaminoisoindoline-1,3-dione]		36	31	67	56	49	about 54%	64	16	about 62.5%	about 66.6%	about 31%	27
